Source: patent US20040121316A1 (priority 2002, published 2004)
Where “and” joins values, the source holds several entries; their conditions need not be identical. Identical values can stand only once. Like-named read-outs stand apart in the source and are kept apart here.

How the values were obtained:
[1] = system: wild-type HIV-1 strain IIIB; assay: microbe, parasite or virus in culture; type: cell-based; parameters: scale not given here
[2] = target: T1, recombinant HIV-1 protease (Human immunodeficiency virus type 1 group M subtype B, UniProt P04585); assay: biochemical
T1 construct: Enzyme: recombinant HIV-1 protease expressed in E.Coli; purchased Bachem California, Inc. H-9040; host or cells: E. coli

mutant HIV-1 I84V/L90M = assay: Resistance Evaluation, I84V/L90M fold change; type: cell-based; parameters: scale not given here
WT HIV-1 = assay: microbe, parasite or virus in culture; type: cell-based; conditions: Human immunodeficiency virus 1, read-out: Cell-based assay (MT-4) EC50/nM WT
HIV-1 30N82I88D = assay: microbe, parasite or virus in culture; type: cell-based; conditions: Human immunodeficiency virus 1, read-out: Cell-based assay (MT-4) EC50/nM 30N82I88D
HIV-1 84V90M = assay: microbe, parasite or virus in culture; type: cell-based; conditions: Human immunodeficiency virus 1, read-out: Cell-based assay (MT-4) EC50/nM 84V90M
84V90M HIV protease = 84V90M HIV protease (Human immunodeficiency virus type 1 group M subtype B, UniProt P04585, I572V/L578M); assay: biochemical; parameters: species or system HIV-1
[3] = Human immunodeficiency virus 1, IIIB
[4] = EC50 of mutant I84V/L90M relative to wild type, class symbols

## CC(C)CN(C[C@@H](O)[C@H](Cc1ccccc1)NC(=O)O[C@H]1CO[C@H]2OCC[C@H]21)S(=O)(=O)c1ccc(OCP(=O)(Oc2ccccc2)O[C@@H](C)C(=O)OC(C)C)cc1 (stereo partly shown) [OPh, Lac-iPr]
[1]; read-out: EC50
  EC50: 500 to 5000 nM
[2]; read-out: Ki
  Ki: 100 to 1000 pM

## CCCCOC(=O)CNP(=O)(COc1ccc(CC(NC(=O)OC2COC3OCCC23)C(O)CN(CC(C)C)S(=O)(=O)c2ccc(OC)cc2)cc1)Oc1ccccc1 (stereo not shown) [drawing 614 R1=OPh R2=Gly-Bu]
[1]; [3]
  EC50: 50 to 500 nM
[2]; Ki, class symbols, Table 10
  Ki: 10 to 100 pM
Mutant HIV-1 I84V/L90M; [4]
  I84V/L90M fold change: − (≦3)

## CCOC(=O)C(C)OP(=O)(CCN1CC=C(CC(NC(=O)OC2COC3OCCC23)C(O)CN(CC(C)C)S(=O)(=O)c2ccc(OC)cc2)CC1)Oc1ccccc1 (stereo not shown)
[1]
  EC50 (nM): + + +
[2]; read-out: Ki
  Ki: > 1000 pM
Mutant HIV-1 I84V/L90M; mutant I84V/L90M vs wild type
  I84V/L90M fold change: − (≦3)

## CCOP(=O)(COc1ccc(CC(NC(=O)OC2COC3OCCC23)C(O)CN(CC(C)C)S(=O)(=O)c2ccc(OC)cc2)cc1)Oc1ccccc1 (stereo not shown) [drawing 608 R1=OEt R2=OPh]
[1]; [3]
  EC50: < 50 nM
[2]; Ki, class symbols, Table 10
  Ki: < 10 pM

## CCOC(=O)COP(=O)(COc1ccc(CC(NC(=O)OC2COC3OCCC23)C(O)CN(CC(C)C)S(=O)(=O)c2ccc(OC)cc2)cc1)Oc1ccccc1 (stereo not shown) [drawing 615 R1=OPh R2=Glc-Et]
[1]; [3]
  EC50: 50 to 500 nM
[2]; Ki, class symbols, Table 10
  Ki: < 10 pM
Mutant HIV-1 I84V/L90M; [4]
  I84V/L90M fold change: − (≦3)

## O=C(O)c1cccc(CN2C(=O)N(Cc3ccc(O)cc3)C(Cc3ccccc3)C(O)C(O)C2Cc2ccccc2)c1 (stereo not shown)
WT HIV-1
  EC50: 3060 nM
HIV-1 30N82I88D
  EC50: 887 nM
HIV-1 84V90M
  EC50: > 6000 nM
84V90M HIV protease
  IC50: 174 nM

## COc1ccc(S(=O)(=O)N(CC(C)C)CC(O)C(CC2=CCN(CP(=O)(O)OC(C)C(=O)O)CC2)NC(=O)OC2COC3OCCC23)cc1 (stereo not shown)
[1]
  EC50 (nM): + + +
[2]
  Ki (pM): + + +
Mutant HIV-1 I84V/L90M; mutant I84V/L90M vs wild type
  I84V/L90M fold change: − (≦3)

## CCOC(=O)C(C)OP(=O)(COc1ccc(CC(NC(=O)OC2COC3OCCC23)C(O)CN(CC(C)C)S(=O)(=O)c2ccc(OC)cc2)cc1)Oc1ccccc1 (stereo not shown) [Example 31e]
[1]; [3]
  EC50: < 50 nM
[2]; Ki, class symbols, Table 10
  Ki: < 10 pM

## COc1ccc(S(=O)(=O)N(CC(C)C)CC(O)C(CN(C)Cc2ccc(P(=O)(O)OC(C)C(=O)O)cc2)NC(=O)OC2COC3OCCC23)cc1 (stereo not shown)
[1]; read-out: EC50
  EC50: 500 to 5000 nM
[2]
  Ki (pM): + +
Mutant HIV-1 I84V/L90M; mutant I84V/L90M vs wild type
  I84V/L90M fold change: + + +

## CCOC(=O)C(C)OP(=O)(COc1ccc(CC(NC(=O)OC2COC3OCCC23)C(O)CN(CC(C)C)S(=O)(=O)c2ccc(OC)cc2)cc1)Oc1cccc(CN)c1 [drawing 617 R1=OPb-m-CH2NH2 R2=(S)Lac-Et]
[1]; [3]
  EC50: 50 to 500 nM
[2]; Ki, class symbols, Table 10
  Ki: 10 to 100 pM

## COC(=O)C(C)NP(=O)(COc1ccc(CC(NC(=O)OC2COC3OCCC23)C(O)CN(CC(C)C)S(=O)(=O)c2ccc(OC)cc2)cc1)Oc1ccccc1 (stereo not shown) [Example 30a]
[1]; [3]
  EC50: < 50 nM
[2]; Ki, class symbols, Table 10
  Ki: 10 to 100 pM
Mutant HIV-1 I84V/L90M; [4]
  I84V/L90M fold change: − (≦3)

## Nc1n[nH]c2ccc(CN3C(=O)N(Cc4cccc(C(=O)O)c4)C(Cc4ccccc4)C(O)C(O)C3Cc3ccccc3)cc12 (stereo not shown)
HIV-1 30N82I88D
  EC50: > 6000 nM
HIV-1 84V90M
  EC50: > 6000 nM
84V90M HIV protease
  IC50: 27 nM

## CCCCOC(=O)C(C)OP(=O)(COc1ccc(CC(NC(=O)OC2COC3OCCC23)C(O)CN(CC(C)C)S(=O)(=O)c2cccc(N)c2)cc1)Oc1ccccc1 (stereo not shown) [drawing 719]
[2]; Ki (pM)
  Ki: 100 to 1000 pM
Mutant HIV-1 I84V/L90M; mutant I84V/L90M vs wild type
  I84V/L90M fold change: − (≦3)

## COc1ccc(S(=O)(=O)N(CC(C)C)CC(O)C(Cc2ccc(OCP(=O)(Oc3ccccc3)OC(C)C(=O)OC(C)C)cc2)NC(=O)OC2COC3OCCC23)cc1 (stereo not shown) [Example 31a]
[1]; [3]
  EC50: < 50 nM
[2]; Ki, class symbols, Table 10
  Ki: 10 to 100 pM and < 10 pM
Mutant HIV-1 I84V/L90M; [4]
  I84V/L90M fold change: − (≦3)

## Nc1n[nH]c2ccc(CN3C(=O)N(CCCCOCP(=O)(O)O)C(Cc4ccccc4)C(O)C(O)C3Cc3ccccc3)cc12 (stereo not shown) [CH2 OCH2PO3H2]
WT HIV-1
  EC50: 1760 nM
HIV-1 84V90M
  EC50: > 4240 nM
84V90M HIV protease
  IC50: 205 nM

## CCCCOC(=O)C(C)NP(=O)(COc1ccc(CC(NC(=O)OC2COC3OCCC23)C(O)CN(CC(C)C)S(=O)(=O)c2ccc(OC)cc2)cc1)Oc1ccccc1 (stereo not shown) [Example 30d]
[1]; [3]
  EC50: < 50 nM
[2]; Ki, class symbols, Table 10
  Ki: 10 to 100 pM
Mutant HIV-1 I84V/L90M; [4]
  I84V/L90M fold change: − (≦3)

## CC(C)CN(CC(O)C(Cc1ccc(OCP(=O)(NC(C)C(=O)OC(C)C)Oc2ccccc2)cc1)NC(=O)OC1CCOC1)S(=O)(=O)c1ccc(N)cc1 (stereo not shown) [drawing 697 R1=OPh R2=Ala-iPr]
[1]; class symbols, Table 10
  EC50: + +
[2]; Ki, class symbols, Table 10
  Ki: 100 to 1000 pM
[2]; class symbols, Table 10
  Ki: + +
Mutant HIV-1 I84V/L90M; [4]
  I84V/L90M fold change: + (>3 to ≦10)

## CCOP(=O)(CCCNC(=O)c1cccc(CN2C(=O)N(Cc3ccc4[nH]nc(N)c4c3)C(Cc3ccccc3)C(O)C(O)C2Cc2ccccc2)c1)OCC (stereo not shown) [drawing 820]
84V90M HIV protease; read-out: 84V90M IC50/nM, Enzymatic assay, 84V90M
  IC50: 10 nM
